# According to US10968214B2, “KRas G12C inhibitors” (Eli Lilly and Company, priority 2018, dated 2021):
# Where two headings read alike, the source gives them in different places.
# Legend:
# Calu-6 = assay: CellTiterGlo Cell Proliferation Assay, Calu-6; type: cell-based; details: Homo sapiens, KRas Q61K, lung, 96 hr
# Description: (§1) A panel of tumor cell lines harboring KRas G12C or other KRas mutations are collected (Table 6). All cell lines are from ATCC or other sources indicated.
# (§2) Typically cells are cultured in RPMI1640 or Dulbecco's modified Eagle's medium (DMEM, GIBCO) supplemented with 10% FBS (GIBCO, Invitrogen). For 2D culture cells (4×10^3/well) maintained in growth medium described above, are plated onto 96 well tissue culture plates Corning® Cat. 3603) a day before the treatment. For 3D culture 8000 cells/well are seeded onto 96 well ultra-low attachment tissue culture plates (Corning, #3474). The cells are treated compound for 96 hr, and then are analyzed for viability using the CellTiterGlo® Luminescent Cell Viability Assay® (Promega #G7572 for 2D and Promega #G9683 for 3D cultures) according to manufacturer's instructions and an EnVision™ plate reader. Nonlinear regression and sigmoidal dose-response curves are used to calculate the half maximal inhibitory concentration (IC50) with GraphPad Prism 4® software.
# A549 = assay: CellTiterGlo Cell Proliferation Assay, A549; type: cell-based; details: KRas G12S, lung, 96 hr; for IC50: Homo sapiens
# Description: as §1, §2
# [1] = test system: pERK in H358 xenograft tumors; assay: In vivo target inhibition/PD, H358 xenograft, pERK; parameters: species or system mouse; details: for inhibition at 10 mg/kg: 10 mg/kg single dose; for inhibition at 30 mg/kg: 30 mg/kg single dose
# Description: (§3) To evaluate in vivo target inhibition and anti-tumor efficacy of a compound, Human lung cancer cells, H358 or H2122 are implanted into nude mice xenograft tumor models. Either H358 or H2122 cells (10×10^6 in a 1:1 Matrigel® mix, 0.2 mL total volume) are implanted by subcutaneous injection in hind leg of nude female mice (Harlan Laboratories). A total of 5 mice each group are used for efficacy study, and a total of 3-4 mice each group are used for target engagement and PD study. Treatment is initiated with oral administration (gavage) of a test compound or vehicle (20% Captisol®, 25 mM phosphate, pH 2.0 in 0.2 mL volume when the tumor size reaches approximately […]. Tumor growth and body weight are monitored over time to evaluate efficacy and signs of toxicity. Bidimensional measurements of tumors are performed twice a week and tumor volumes are calculated based on mid-axis length and mid-axis width. Tumor volume data are transformed to a log scale to equalize variance across time and treatment groups. The log volume data are analyzed with a two-way repeated measures analysis of variance by time and treatment using the mixed procedures in SAS software (version 8.2). The correlation model for the repeated measures is spatial power. Treated groups are compared to the control group at each time point. The mixed procedure is also used separately for each treatment group to calculate adjusted means and standard errors at each time point. Both analyses account for the autocorrelation within each animal. The adjusted means and standard errors are plotted for each treatment group versus time.
# For in vivo target inhibition and PD analysis, tumors are ground by mortar and pestle on dry ice and tumor fragments are added to 800 μL of lysis buffer containing 1% Triton X100, 25 mM Tris pH 7.5, 150 mM NaCl, 1 mM EDTA, and 1 mM EGTA with Halt protease and phosphatase inhibitor cocktail (Thermo Scientific, cat. no. 1861281) in lysing matrix D tubes (MP Biomedical®, cat. no. 6913-500) with one additional large bead (MP Biomedical® ¼″ ceramic sphere bead cat. no. 6540-412) per tube. Tumor fragments are homogenized in a Thermo Bio101® fast prep (FP120) at setting 4 for […] while cold for a total of 2 times. Lysates are spun at 14,000 rpm for 10 min at 4° C. to clarify. Protein estimation is done on the lysate supernatant using a BioRad Dc® protein assay and lysates are diluted in complete lysis/binding buffer from the Ras GTPase Chemi ELISA Kit® (Active Motif, cat. no. 52097). The active KRas ELISA was performed as follows: Glutathione-coated ELISA wells were incubated with diluted RAF1-GST in complete lysis/binding buffer for 1 hr at 4° C. with gentle agitation. Wells are washed 3 times with wash buffer and 100 μg of lysates are added to each well and incubated at RT for 1 hr with mild agitation. The wells are washed an additional 3 times, then primary antibody, diluted in antibody binding buffer, is added to each well. The plates are incubated for 1 hr. The wells are washed 3 more times before adding HRP-conjugated secondary antibody, diluted in antibody binding buffer, to each well. The plates are incubated at RT for 1 hr. ELISA wells are washed 4 times, chemiluminescent reagents is added and then luminescence is read. For pERK Meso Scale Discovery ELISA, 25 μg of protein containing 0.1% SDS is used; for pMEK Meso Scale Discovery ELISA, 50 μg of protein without SDS is used. Meso Scale Discovery Whole Cell Lysate Kits for pERK and pMEK are provided by Meso Scale Discovery.
# The tumor samples are collected 4 hr post a single dose. The tumor lysates are prepared and the inhibition of pERK, pMEK, and active KRas is measured as described above.
# After a single dose, the tumor samples are harvested at 2, 4, 8, 12 and 24 hr post doing. The tumor lysates are prepared and the inhibition of pERK, pMEK, and active KRas is measured as described above.
# H358 xenograft = assay: Anti-tumor growth activity, lung cancer H358 xenograft mouse model; type: in vivo; details: for Tumor Growth Inhibition (%) or Regression (−%): 28 Day, negative = regression
# Description: as §3
# H358 lung tumor cells (10×10^6) are implanted by subcutaneous injection in hind leg of nude female mice (Taconic Biosciences).
# EL2661 (PDX) = assay: Anti-tumor growth activity, EL2661 lung PDX; type: in vivo; details: 28 Day, negative = regression
# SW1463 xenograft = assay: Anti-tumor growth activity, SW1463 colorectal xenograft; type: in vivo; details: for Tumor Growth Inhibition (%) or Regression (−%): 28 Day, negative = regression
# [2] = read-out: IC50 (μM) in 2 D cell proliferation
# [3] = read-out: IC50 (μM) in 3 D spheroid cell proliferation
# [4] = Mus musculus, NCI-H358, 2 h, H358 xenograft, time course, 2 hr, read-out: % Inhibition pERK
# [5] = Mus musculus, NCI-H358, 4 h, H358 xenograft, time course, 4 hr, read-out: % Inhibition pERK
# [6] = Mus musculus, NCI-H358, 4 h, H358 xenograft, 4 hr post dose, read-out: % Inhibition pERK
# [7] = Mus musculus, NCI-H358, 8 h, H358 xenograft, time course, 8 hr, read-out: % Inhibition pERK
# [8] = Mus musculus, NCI-H358, 12 h, H358 xenograft, time course, 12 hr, read-out: % Inhibition pERK
# [9] = Mus musculus, NCI-H358, 24 h, H358 xenograft, time course, 24 hr, read-out: % Inhibition pERK
smiles,measurement,setting,value
"C=CC(=O)N1CCN(c2ncnc3c(F)c(-c4ccc(F)c5sc(N)nc45)c(Cl)cc23)CC1 [Example 1, 1-{4-[7-(2-Amino-7-fluoro-1,3-benzothiazol-4-yl)-6-chloro-8-fluoroquinazolin-4-yl]piperazin-1-yl}prop-2-en-1-one]",IC50,Calu-6; [2],12.1 µM
same,IC50,Calu-6; [3],19.5 µM
same,IC50,A549; [2],17.7 µM
same,IC50,A549; [3],5.94 µM
same,IC50 (μM) in 2 D cell proliferation,A549,little activity
same,IC50 (μM) in 3 D spheroid cell proliferation,A549,little activity
same,"dose to achieve 50% target inhibition (TED50), pERK","[1]; H358 xenograft, single dose, 4 hr",9.78 mg/kg
same,inhibition at 10 mg/kg,[1]; [4],61.7%
same,inhibition at 30 mg/kg,[1]; [4],83.1%
same,inhibition at 10 mg/kg,[1]; [5],73.5%
same,inhibition at 30 mg/kg,[1]; [5],87.3%
same,inhibition at 1 mg/kg,"[1]; Mus musculus, NCI-H358, 4 h, H358 xenograft, 1 mg/kg single dose, 4 hr post dose",5.5%
same,inhibition at 3 mg/kg,"[1]; Mus musculus, NCI-H358, 4 h, H358 xenograft, 3 mg/kg single dose, 4 hr post dose",16.4%
same,inhibition at 10 mg/kg,[1]; [6],47.8%
same,inhibition at 30 mg/kg,[1]; [6],84.2%
same,inhibition at 100 mg/kg,"[1]; Mus musculus, NCI-H358, 4 h, H358 xenograft, 100 mg/kg single dose, 4 hr post dose",83.5%
same,inhibition at 10 mg/kg,[1]; [7],69.2%
same,inhibition at 30 mg/kg,[1]; [7],86.5%
same,inhibition at 10 mg/kg,[1]; [8],83%
same,inhibition at 30 mg/kg,[1]; [8],77.4%
same,inhibition at 10 mg/kg,[1]; [9],45%
same,inhibition at 30 mg/kg,[1]; [9],63.4%
same,inhibition at 10 mg/kg,"[1]; Mus musculus, NCI-H358, H358 xenograft, from 2-12 hr, read-out: pERK inhibition",61 to 83%
same,inhibition at 30 mg/kg,"[1]; Mus musculus, NCI-H358, H358 xenograft, from 2-24 hr, read-out: pERK inhibition",63 to 87%
same,EC50,"[1]; Mus musculus, NCI-H358, H358 xenograft, plasma exposure by mass spectrum, read-out: plasma concentration to achieve 50% target inhibition (TEC50), pERK",0.474 µM
same,Tumor Growth Inhibition (%) or Regression (−%),"H358 xenograft; H358 Lung, 10 mg/kg BID, oral",−1.98%
same,Tumor Growth Inhibition (%) or Regression (−%),"H358 xenograft; H358 Lung, 10 mg/kg QD, oral",42.7%
same,Tumor Growth Inhibition (%) or Regression (−%),"H358 xenograft; H358 Lung, 30 mg/kg BID, oral",−74.35%
same,Tumor Growth Inhibition (%) or Regression (−%),"H358 xenograft; H358 Lung, 30 mg/kg QD, oral",−33.98%
same,In Vivo Anti-Tumor Activities,"H358 xenograft; H358 Lung, Example 1 30 mg/kg QDx28",−33.4
same,animal body weight loss,"H358 xenograft; H358 xenograft mice, 10 or 30 mg/kg once or twice daily for 28 days, oral",No significant animal body weight loss was observed
same,Tumor Growth Inhibition (%) or Regression (−%),EL2661 (PDX); 10 mg/kg QD,46.5%
same,Tumor Growth Inhibition (%) or Regression (−%),EL2661 (PDX); 20 mg/kg QD,58.6%
same,Tumor Growth Inhibition (%) or Regression (−%),EL2661 (PDX); 30 mg/kg QD,97.6%
same,Tumor Growth Inhibition (%) or Regression (−%),EL2661 (PDX); 50 mg/kg QD,−8.6%
same,Tumor Growth Inhibition (%) or Regression (−%),SW1463 xenograft; 15 mg/kg BID,−27%
same,Tumor Growth Inhibition (%) or Regression (−%),SW1463 xenograft; 30 mg/kg BID,−47.9%
same,Tumor Growth Inhibition (%) or Regression (−%),SW1463 xenograft; 30 mg/kg QD,−13.9%
same,In Vivo Anti-Tumor Activities,SW1463 xenograft; Example 1 30 mg/kg QDx28,−21.4
